Source: paper PMC11509080, “Discovery of Kuraridin as a Potential Natural Anti-Melanogenic Agent: Focusing on Specific Target Genes and Multidirectional Signaling Pathways” (International Journal of Molecular Sciences, 2024)

Tests used:
[1] = test system: tyrosinase; parameters: method as in Deri et al. (2016) [15]; conditions: ref Deri et al. (2016) [15], cited from earlier work
[2] = molecular target: T1, tyrosinase (Agaricus bisporus, UniProt C7FF04); assay: Enzyme kinetic analysis of tyrosinase with L-tyrosine (Lineweaver-Burk, Dixon plots); assay type: biochemical; conditions: substrate L-tyrosine
T1 sequence (G1K3P4 entry or part of it): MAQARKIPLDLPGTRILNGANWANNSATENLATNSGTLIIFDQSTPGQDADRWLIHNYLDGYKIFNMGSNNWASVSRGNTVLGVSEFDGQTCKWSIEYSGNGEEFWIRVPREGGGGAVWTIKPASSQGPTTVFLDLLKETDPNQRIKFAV
T1 sequence (C7FF04 2-392): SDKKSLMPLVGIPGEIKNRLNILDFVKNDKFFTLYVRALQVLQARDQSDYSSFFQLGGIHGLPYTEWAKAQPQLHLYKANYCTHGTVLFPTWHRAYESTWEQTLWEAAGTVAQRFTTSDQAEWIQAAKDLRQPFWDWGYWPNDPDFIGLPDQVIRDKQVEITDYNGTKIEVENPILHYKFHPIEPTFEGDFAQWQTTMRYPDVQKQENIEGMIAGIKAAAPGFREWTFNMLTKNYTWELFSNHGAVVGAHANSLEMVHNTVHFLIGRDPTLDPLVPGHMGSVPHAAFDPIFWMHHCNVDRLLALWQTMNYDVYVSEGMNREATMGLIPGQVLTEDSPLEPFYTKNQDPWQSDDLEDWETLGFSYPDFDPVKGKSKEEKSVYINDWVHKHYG
Protocol: (§1) Enzyme kinetics were analyzed using Lineweaver–Burk and Dixon reciprocal plots of the reaction rate and substrate concentration to evaluate the effect of the sample on the affinity of the substrate and enzyme. The tyrosinase concentration was kept constant at 200 U/mL, whereas the substrate (L-tyrosine/L-DOPA) concentration varied between 0.5 and 2.0 mM. The reaction was similar to the anti-tyrosinase assay described above; 100 µL of sample solution was added, followed by 100 µL of tyrosinase (200 units/mL) after incubation at 25 °C. The substrate was then added to the wells and mixed thoroughly, and kinetic measurements of the solution were performed at a wavelength of 475 nm.

[3] = test system: B16F10 cells; assay: Cellular tyrosinase activity (L-DOPA oxidation) in α-MSH-induced cells; assay type: cell-based, Murine; conditions: for Intracellular tyrosinase activity: α-MSH-induced B16F10 cells
Protocol: Tyrosinase activity was estimated by measuring the rate of L-DOPA oxidation. […] The cells were washed with cold PBS, and cell lysis buffer was added for lysis at 4 °C for 1 h on ice and centrifuged at 13,000 rpm for 20 min at […] to obtain supernatants. Protein concentration was quantified at 50 µg using a BCA protein assay kit. […] Absorbance was measured at 490 nm using a microplate reader.

[4] = test system: B16F10 melanoma cells; assay: Cell viability, CCK-8 assay; assay type: cell-based, Murine; conditions: 0.1–5 μM, 72 h
Protocol: Murine B16F10 melanoma cells (Korean Cell Line Bank, Seoul, Republic of Korea) were cultured in DMEM containing 10% FBS and 1% penicillin-streptomycin at 37 °C in the humidified atmosphere of a 5% CO2 incubator. The cells were cultured until 100% confluent for all experiments.
Cell viability was assessed using the CCK-8 kit. Cells were incubated in 96-well plates at a density of approximately 3 × 10^3 cells/well. After 24 h incubation, a kuraridin concentration (0.1–10 µM) of samples or medium was added to B16F10 cells at 72 h of incubation. Absorbance was monitored at 450 nm using a microplate reader (Synergy H(1), Biotek, VT, USA).

[5] = test system: B16F10 melanoma cells; assay: Cellular melanin content (extracellular and intracellular) in α-MSH-induced cells; assay type: cell-based, Murine
Protocol: B16F10 melanoma cells (7.4 × 10⁴ cells/well) were seeded in a 6-well plate. […] The extracellular melanin content was measured by direct estimation of the absorbance of the cell-free culture medium at 405 nm. For the measurement of intracellular melanin content, cell pellets were dissolved in 1 N NaOH at 95 °C for 1 h. The absorbance of the resulting solution was measured at 405 nm using a microplate reader [Synergy H(1)].

[6] = molecular target: T1, tyrosinase; assay: Enzyme kinetic analysis of tyrosinase with L-DOPA (Lineweaver-Burk, Dixon plots); assay type: biochemical; conditions: substrate L-DOPA
Protocol: as §1

[7] = α-MSH-induced B16F10 cells, 0.1–5 μM, dose-dependent
[8] = B16F10 cells, α-MSH stimulation 0.1 μM, 72 h, control = 100%

## O=c1cc(CO)occ1O [Kojic acid]
[1]; substrate L-DOPA
  Inhibition Type L-DOPA: Mixed ^2
[1]; substrate L-tyrosine
  Inhibition Type L-Tyrosine: Mixed ^2

## C=C(C)[C@H](CC=C(C)C)Cc1c(O)cc(OC)c(C(=O)/C=C/c2ccc(O)cc2O)c1O [Kuraridin, kuraridin]
[2]
  Inhibition Type L-Tyrosine: Non-competitive
[3]; all tested concentrations (0.1–5 μM), vs α-MSH only, p < 0.001
  Intracellular tyrosinase activity: significantly suppressed tyrosinase activity
[3]; lowest concentration 0.1 μM
  Intracellular tyrosinase activity: reached control levels
[4]
  Cytotoxicity (cell viability): without cytotoxicity
[5]; [7]
  Extracellular melanin production: significantly attenuated
  Intracellular melanin production: significantly attenuated
[5]; α-MSH-treated B16F10 cells, 1 µM
  Intracellular melanin content lower than the untreated control: 15%
[6]
  Inhibition Type L-DOPA: Competitive
[6]; listed as kuraridin
  Inhibition Type L-DOPA: competitive inhibition

## C=C(C)[C@H](CCC(C)(C)O)Cc1c(O)cc(OC)c2c1O[C@H](c1ccc(O)cc1O)CC2=O [Kurarinol, kurarinol]
[2]
  Inhibition Type L-Tyrosine: Non-competitive

## C=C(C)[C@H](CC=C(C)C)Cc1c(O)cc(O)c2c1O[C@H](c1ccccc1O)CC2=O [Kushenol A, kushenol A]
[2]
  Inhibition Type L-Tyrosine: Non-competitive

## alpha-melanocyte-stimulating hormone [α-MSH, reference compound]
[3]; B16F10 cells, α-MSH 100 nM, 72 h
  Increase of intracellular tyrosinase activity compared with control group: 1.8 fold
[5]; [8]
  Extracellular melanin content: approximately 132%
  Intracellular melanin content: ~127%
